Experimental data from ChEMBL document CHEMBL2010767, “Agonists for the Chemokine Receptor CXCR4” (ACS Med Chem Lett, 2011).
Activity calls are given as the source filed them. No cut-off for these calls is given here.

Key:
[1] = biological target: T1, C-X-C chemokine receptor type 4 (Homo sapiens, UniProt P61073); assay: Displacement of [125I]-SDF-1alpha from human CXCR4 receptor expressed in HEK293 cells after 1 hr by gamma counting; type: cell-based
[2] = biological target: T1, C-X-C chemokine receptor type 4; assay: Agonist activity at CXCR4 receptor in human REH cells assessed as induction of chemotactic migration at 1 uM after 3 hrs; type: functional, cell-based
[3] = biological target: T1, C-X-C chemokine receptor type 4; assay: Agonist activity at CXCR4 receptor in human REH cells assessed as induction of chemotactic migration at 10 to 100 nM after 3 hrs; type: functional, cell-based
[4] = biological target: T1, C-X-C chemokine receptor type 4; assay: Antagonist activity at CXCR4 receptor in human REH cells assessed as inhibition of SDF-1alpha-induced chemotactic migration after 3 hrs; type: functional, cell-based

T1 sequence (P61073 whole entry): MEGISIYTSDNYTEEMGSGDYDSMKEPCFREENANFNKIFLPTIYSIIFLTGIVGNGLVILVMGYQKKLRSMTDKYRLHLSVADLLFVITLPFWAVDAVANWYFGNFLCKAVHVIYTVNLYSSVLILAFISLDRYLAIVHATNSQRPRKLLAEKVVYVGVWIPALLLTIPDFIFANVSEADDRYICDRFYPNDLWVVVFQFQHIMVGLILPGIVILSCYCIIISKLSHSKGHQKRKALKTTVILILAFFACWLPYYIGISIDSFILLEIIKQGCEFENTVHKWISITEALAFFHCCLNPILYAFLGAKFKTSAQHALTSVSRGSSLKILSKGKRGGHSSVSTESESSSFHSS

IC50 ([1]; hek293)	Activity [2]	Activity [3]	IC50 [1]	Activity [4]	Structure (SMILES)
170 nM	Active	–	–	–	CC(C)C[C@H](NC(=O)[C@H](CO)NC(=O)[C@@H](NC(=O)[C@@H]1CCCN1C(=O)[C@@H](N)CCCCN)C(C)C)C(=O)N[C@@H](CO)C(=O)N[C@@H](Cc1ccc(O)cc1)C(=O)NCCCC[C@@H](NC(=O)[C@@H]1CSSC[C@H](NC(=O)[C@H](Cc2ccc3ccccc3c2)NC(=O)[C@H](CCCNC(=N)N)NC(=O)[C@@H](N)CCCNC(=N)N)C(=O)N[C@@H](Cc2ccc(O)cc2)C(=O)N[C@@H](CCCNC(=N)N)C(=O)N[C@@H](CCCCN)C(=O)N[C@H](CCCCN)C(=O)N2CCC[C@H]2C(=O)N[C@@H](Cc2ccc(O)cc2)C(=O)N[C@@H](CCCNC(=N)N)C(=O)N[C@@H](CCCNC(N)=O)C(=O)C1)C(=O)O
–	–	Active	9.57 nM	–	CC(C)C[C@H](NC(=O)[C@H](CO)NC(=O)[C@@H](NC(=O)[C@@H]1CCCN1C(=O)[C@@H](N)CCCCN)C(C)C)C(=O)N[C@@H](CO)C(=O)N[C@@H](Cc1ccc(O)cc1)C(=O)N[C@@H](CCCNC(=N)N)C(=O)N[C@@H](CO)C(=O)N1CCC[C@H]1C(=O)NCCCC[C@H](NC(=O)[C@@H]1CSSC[C@H](NC(=O)[C@H](Cc2ccc3ccccc3c2)NC(=O)[C@H](CCCNC(=N)N)NC(=O)[C@@H](N)CCCNC(=N)N)C(=O)N[C@@H](Cc2ccc(O)cc2)C(=O)N[C@@H](CCCNC(=N)N)C(=O)N[C@@H](CCCCN)C(=O)N[C@H](CCCCN)C(=O)N2CCC[C@H]2C(=O)N[C@@H](Cc2ccc(O)cc2)C(=O)N[C@@H](CCCNC(=N)N)C(=O)N[C@@H](CCCNC(=N)N)C(=O)C1)C(=O)O
–	–	–	2.22 nM	Active	CC(C)C[C@H](NC(=O)[C@H](CO)NC(=O)[C@@H](NC(=O)[C@@H]1CCCN1C(=O)[C@@H](N)CCCCN)C(C)C)C(=O)N[C@@H](CO)C(=O)N[C@@H](Cc1ccc(O)cc1)C(=O)NCCCC[C@@H]1NC(=O)[C@H](CCCNC(=N)N)NC(=O)[C@H](Cc2ccc(O)cc2)NC(=O)[C@@H]2CCCN2C(=O)[C@@H](CCCCN)NC(=O)[C@H](CCCCN)NC(=O)[C@H](CCCNC(=N)N)NC(=O)[C@H](Cc2ccc(O)cc2)NC(=O)[C@@H](NC(=O)[C@H](Cc2ccc3ccccc3c2)NC(=O)[C@H](CCCNC(=N)N)NC(=O)[C@@H](N)CCCNC(=N)N)CSSC[C@@H](C(=O)N[C@@H](CCCNC(=N)N)C(=O)O)CC1=O
